Patent US20120004222A1, “CB2 RECEPTOR LIGANDS FOR THE TREATMENT OF PAIN” (priority 2007, published 2012)
pIC50: −log10 of the molar value. Read-outs that look alike come from different tables or passages of the source.

Target: T1, human CB2 (Homo sapiens, UniProt P34972)
T1 construct: expressed in transfected cells; host or cells: CHO (Chinese Hamster Ovary) cells
Assay: Cyclic AMP assay (HTRF) in CHO cells expressing human CB2
Assay type: cell-based
Protocol: Chinese Hamster Ovary cells (CHO) expressing human CB1 or human CB2 (3.3×10^5 cells/ml) were preincubated for 15 min at room temperature with tested agonist and 3-isobutyl-1-methylxanthine (IBMX; 200 μM) in phosphate buffered saline containing 1 mg/ml BSA (assay buffer) followed by 30 min incubation with forskolin in a total volume of 10 μl. The optimal forskolin concentration for each cell line was established in a separate experiment and adjusted to stimulate 70% of maximal cAMP response. cAMP content was measured using an HTRF assay (CisBio) according to the manufacturer's two step protocol.

[1] = CHO cells expressing human CB2, forskolin-stimulated cAMP, IBMX 200 μM, read-out: CB2 IC50

T1 sequence (P34972 whole entry): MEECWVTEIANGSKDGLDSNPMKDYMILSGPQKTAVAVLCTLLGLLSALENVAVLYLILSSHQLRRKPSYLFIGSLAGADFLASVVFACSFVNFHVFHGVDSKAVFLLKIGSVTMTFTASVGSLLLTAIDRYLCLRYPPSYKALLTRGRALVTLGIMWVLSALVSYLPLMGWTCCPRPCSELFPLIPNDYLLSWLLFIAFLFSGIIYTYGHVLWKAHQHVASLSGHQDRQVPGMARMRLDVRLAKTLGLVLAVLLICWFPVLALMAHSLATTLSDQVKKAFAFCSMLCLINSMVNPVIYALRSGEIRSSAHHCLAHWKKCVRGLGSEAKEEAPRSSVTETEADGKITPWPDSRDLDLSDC

In the case of `c1ccc2[nH]c(-c3nc(CN4CCOCC4)c4ccccn34)nc2c1` [Example I-1, 2-[1-(morpholin-4-ylmethyl)imidazo[1,5-a]pyridin-3-yl]-1H-benzimidazole], the pIC50 [1] was 5.90.
`FC1(F)CCN(Cc2nc(-c3nc(-c4ccccc4)c[nH]3)n3ccccc23)CC1` [Example II-1, 1-[(4,4-difluoropiperidin-1-yl)methyl]-3-(4-phenyl-1H-imidazol-2-yl)imidazo[1,5-a]pyridine] gave a pIC50 of 6.75.
In the case of `Fc1ccc(-c2cc(-c3nc(CN4CCOCC4)c4ccccn34)[nH]n2)cc1` [Example III-1, 3-[3-(4-fluorophenyl)-1H-pyrazol-5-yl]-1-(morpholin-4-ylmethyl)imidazo[1,5-a]pyridine], the pIC50 [1] was 6.21.
With `FC1(F)CCN(Cc2nc(-c3cccc(C(F)(F)F)c3)n3ccccc23)CC1` [Example IV-1, 1-[(4,4-difluoropiperidin-1-yl)methyl]-3-[3-(trifluoromethyl)phenyl]imidazo[1,5-α]pyridine] the pIC50 was 7.77.
`FC1(F)CCN(Cc2nc(-c3nc(-c4ccc(Cl)cc4)c[nH]3)n3ccccc23)CC1` [II-2, 3-[4-(4-CHLOROPHENYL)-1H-IMIDAZOL-2- YL]-1-[(4,4-DIFLUOROPIPERIDIN-1- YL)METHYL]IMIDAZO[1,5-A]PYRIDINE] was tested, and the pIC50 [1] was 6.70.
`FC1(F)CCN(Cc2nc(-c3nc(-c4ccc(Cl)cc4Cl)c[nH]3)n3ccccc23)CC1` [II-3, 3-[4-(2,4-DICHLOROPHENYL)-1H- IMIDAZOL-2-YL]-1-[(4,4- DIFLUOROPIPERIDIN-1- YL)METHYL]IMIDAZO[1,5-A]PYRIDINE] was tested, and the pIC50 [1] was 6.84.
`Fc1ccc(-c2c[nH]c(-c3nc(CN4CCC(F)(F)CC4)c4ccccn34)n2)cc1F` [II-4, 3-[4-(3,4-DIFLUOROPHENYL)-1H- IMIDAZOL-2-YL]-1-[(4,4- DIFLUOROPIPERIDIN-1-YL)METHYL] IMIDAZO[1,5-A]PYRIDINE] gave a pIC50 [1] of 6.77.
With `FC1(F)CCN(Cc2nc(-c3nc(-c4cccc(C(F)(F)F)c4)c[nH]3)n3ccccc23)CC1` [II-5, 1-[(4,4-DIFLUOROPIPERIDIN-1- YL)METHYL]-3-{4-[3- (TRIFLUOROMETHYL)PHENYL]-1H- IMIDAZOL-2-YL}IMIDAZO [1,5-A]PYRIDINE] the pIC50 [1] was 6.78.
With `FC1(F)CCN(Cc2nc(-c3ccc(-c4ccn[nH]4)cc3)n3ccccc23)CC1` [IV-4, 1-[(4,4-DIFLUOROPIPERIDIN-1- YL)METHYL]-3-[4-(1H-PYRAZOL-5- YL)PHENYL]IMIDAZO[1,5-A]PYRIDINE] the pIC50 [1] was 6.94.
`CC(C)(O)CCc1ccc(-c2nc(CN3CCC(F)(F)CC3)c3ccccn23)cc1` [IV-6, 4-(4-{1-[(4,4-DIFLUOROPIPERIDIN-1- YL)METHYL]IMIDAZO[1,5-A]PYRIDIN-3- YL}PHENYL)-2-METHYLBUTAN-2-OL] showed a pIC50 of 5.87.
Compound `FC1(F)CCN(Cc2nc(-c3cccc(-n4cccn4)c3)n3ccccc23)CC1` [IV-7, 1-[(4,4-DIFLUOROPIPERIDIN-1- YL)METHYL]-3-[3-(1H-PYRAZOL-1- YL)PHENYL]IMIDAZO[1,5-A]PYRIDINE] has a pIC50 [1] of 6.95.
